Tested on: not given
Assay: not given
Conditions: not given

**Q.** For `CC(=O)NCCc1nc(Cl)sc1Cl` [ID 5650, N-[2-(2,5-dichloro-1,3-thiazol-4-yl)ethyl]acetamide], which melting point is on record?
**A.** Its melting point is 87 °C.

Tested on: Lentils
Assay: Herbicidal effect on potted weeds, plant development score
Format: in vivo
Conditions: post-emergence, soil application 1 mg/pot; scale 0 (dead plants) to 5 (healthy, as Control)
Description: (§1) Weed seeds were sawn in 0.3-liter pots, containing medium-heavy clay-loam soil from organic fields (55% clay, 23% silt, 20% sand, 2% organic matter, pH 7.1). The experiment was conducted in a completely randomized design. Each treatment was replicated 3 times (3 pots). Each compound was typically tested on crops (Corn, Wheat, Soy, Cotton, Oat, Chickpea) and weeds (Amaranth, Chenopodium, Lentils, Sinapis, Silybum).
(§2) The herbicides were applied at dose from 0 (control) to 5 mg/pot. The treatment was performed at the day of sawn (pre-emergence treatment). Then the pots were transferred to a mesh house 24 hours after herbicide application and were sprinkler irrigated to field capacity of the soil. Alternatively, the herbicides were applied on grown plants at stage 2-3 true leaves (post-emergence treatment).
(§3) The plants were grown in the mesh house during the entire experiment. Plant development at 6, 12, 19, 26 and 32 days after application (DAA) were evaluated on a scale of 0 to 5, in which 0 represents dead plants and 5 represents healthy plants similar or not different from Control. In the context of the invention, the herbicidal effect was expressed as a score calculated as an average of assessments of plants vigor, height, and leaf color.

**Q.** For “2-(6-bromopyridin-2-yl)-2,2-difluoroacetic acid [compound 6617]”, which “Average Herbicidal Effect, Lentils” value is on record?
**A.** Its value is 1.0.

**Q.** For `O=C(O)C(F)(F)c1nc(Cl)sc1Cl` [compound 5667, 2-(2,5-dichloro-1,3-thiazol-4-yl)-2,2-difluoroacetic acid], which “Average Herbicidal Effect, Lentils” value is on record?
**A.** Its value is 0.0.

Same assay, conditions: pre-emergence, soil application 1 mg/pot; scale 0 (dead plants) to 5 (healthy, as Control)

**Q.** With “2-(6-bromopyridin-2-yl)-2,2-difluoroacetic acid [compound 6617]” as the molecule, how does the “Average Herbicidal Effect, Lentils” value read?
**A.** The value was 2.0.

**Q.** With `O=C(O)C(F)(F)c1nc(Cl)sc1Cl` [compound 5667, 2-(2,5-dichloro-1,3-thiazol-4-yl)-2,2-difluoroacetic acid] as the molecule, how does the “Average Herbicidal Effect, Lentils” value read?
**A.** The value was 0.0.

Tested on: Sinapis
Assay: as above
Format: in vivo
Conditions: post-emergence, soil application 1 mg/pot; scale 0 (dead plants) to 5 (healthy, as Control)
Description: as §1, §2, §3

**Q.** For “2-(6-bromopyridin-2-yl)-2,2-difluoroacetic acid [compound 6617]”, which “Average Herbicidal Effect, Sinapis” value is on record?
**A.** The value was 2.0.

**Q.** Which “Average Herbicidal Effect, Sinapis” value does the source give for `O=C(O)C(F)(F)c1nc(Cl)sc1Cl` [compound 5667, 2-(2,5-dichloro-1,3-thiazol-4-yl)-2,2-difluoroacetic acid] here?
**A.** The value was 0.0.

Same assay, conditions: pre-emergence, soil application 1 mg/pot; scale 0 (dead plants) to 5 (healthy, as Control)

**Q.** Which “Average Herbicidal Effect, Sinapis” value does the source give for “2-(6-bromopyridin-2-yl)-2,2-difluoroacetic acid [compound 6617]” here?
**A.** Its value is 3.5.

**Q.** With `O=C(O)C(F)(F)c1nc(Cl)sc1Cl` [compound 5667, 2-(2,5-dichloro-1,3-thiazol-4-yl)-2,2-difluoroacetic acid] as the molecule, how does the “Average Herbicidal Effect, Sinapis” value read?
**A.** The value was 2.0.

Tested on: Amaranth
Assay: as above
Format: in vivo
Conditions: post-emergence, soil application 1 mg/pot; scale 0 (dead plants) to 5 (healthy, as Control)
Description: as §1, §2, §3

**Q.** Which “Average Herbicidal Effect, Amaranth” value does the source give for “2-(6-bromopyridin-2-yl)-2,2-difluoroacetic acid [compound 6617]” here?
**A.** Its value is 2.0.

**Q.** For `O=C(O)C(F)(F)c1nc(Cl)sc1Cl` [compound 5667, 2-(2,5-dichloro-1,3-thiazol-4-yl)-2,2-difluoroacetic acid], which “Average Herbicidal Effect, Amaranth” value is on record?
**A.** The value was 3.0.

Same assay, conditions: pre-emergence, soil application 1 mg/pot; scale 0 (dead plants) to 5 (healthy, as Control)

**Q.** Which “Average Herbicidal Effect, Amaranth” value does the source give for “2-(6-bromopyridin-2-yl)-2,2-difluoroacetic acid [compound 6617]” here?
**A.** The value was 4.5.

**Q.** For `O=C(O)C(F)(F)c1nc(Cl)sc1Cl` [compound 5667, 2-(2,5-dichloro-1,3-thiazol-4-yl)-2,2-difluoroacetic acid], which “Average Herbicidal Effect, Amaranth” value is on record?
**A.** The value was 2.0.

Tested on: Silybum
Assay: as above
Format: in vivo
Conditions: post-emergence, soil application 1 mg/pot; scale 0 (dead plants) to 5 (healthy, as Control)
Description: as §1, §2, §3

**Q.** For “2-(6-bromopyridin-2-yl)-2,2-difluoroacetic acid [compound 6617]”, which “Average Herbicidal Effect, Silybum” value is on record?
**A.** The value was 4.5.

**Q.** Which “Average Herbicidal Effect, Silybum” value does the source give for `O=C(O)C(F)(F)c1nc(Cl)sc1Cl` [compound 5667, 2-(2,5-dichloro-1,3-thiazol-4-yl)-2,2-difluoroacetic acid] here?
**A.** The value was 0.0.

Same assay, conditions: pre-emergence, soil application 1 mg/pot; scale 0 (dead plants) to 5 (healthy, as Control)

**Q.** With “2-(6-bromopyridin-2-yl)-2,2-difluoroacetic acid [compound 6617]” as the molecule, how does the “Average Herbicidal Effect, Silybum” value read?
**A.** Its value is 5.0.

**Q.** Which “Average Herbicidal Effect, Silybum” value does the source give for `O=C(O)C(F)(F)c1nc(Cl)sc1Cl` [compound 5667, 2-(2,5-dichloro-1,3-thiazol-4-yl)-2,2-difluoroacetic acid] here?
**A.** The value was 3.5.

Tested on: Chenopodium
Assay: as above
Format: in vivo
Conditions: post-emergence, soil application 1 mg/pot; scale 0 (dead plants) to 5 (healthy, as Control)
Description: as §1, §2, §3

**Q.** For “2-(6-bromopyridin-2-yl)-2,2-difluoroacetic acid [compound 6617]”, which “Average Herbicidal Effect, Chenopodium” value is on record?
**A.** Its value is 0.5.

**Q.** For `O=C(O)C(F)(F)c1nc(Cl)sc1Cl` [compound 5667, 2-(2,5-dichloro-1,3-thiazol-4-yl)-2,2-difluoroacetic acid], which “Average Herbicidal Effect, Chenopodium” value is on record?
**A.** The value was 2.4.

Same assay, conditions: pre-emergence, soil application 1 mg/pot; scale 0 (dead plants) to 5 (healthy, as Control)

**Q.** With “2-(6-bromopyridin-2-yl)-2,2-difluoroacetic acid [compound 6617]” as the molecule, how does the “Average Herbicidal Effect, Chenopodium” value read?
**A.** Its value is 4.5.

**Q.** For `O=C(O)C(F)(F)c1nc(Cl)sc1Cl` [compound 5667, 2-(2,5-dichloro-1,3-thiazol-4-yl)-2,2-difluoroacetic acid], which “Average Herbicidal Effect, Chenopodium” value is on record?
**A.** Its value is 0.0.

Tested on: Seeds of Lettuce R. (Super-Jericho)
Assay: Filter paper bioassay with lettuce seeds: germination and early plant development, Minimal Effective Concentration (MEC)
Format: in vivo
Conditions: lettuce seeds on filter paper, 0 to 1 mmol/l, visually assessed after 6 days
Outline: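 Non-sterilized Super-Jericho lettuce seeds, 10 per dish, on filter paper wetted with aqueous test solution at 0–1 mmol/l. Kept 48 h dark, then 4 days at 6/18 dark/light. MEC is the lowest concentration causing no germination or radicle/shoot malformation by visual scoring at day 6; at least two repeats.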

**Q.** With “2-(6-bromopyridin-2-yl)-2,2-difluoroacetic acid [compound 6617]” as the molecule, how does the “Score (activity score of Minimal Effective Concentration, MEC)” value read?
**A.** Its value is “Strong (0.01 mM)”.

**Q.** Which “Score (activity score of Minimal Effective Concentration, MEC)” value does the source give for `O=C(O)C(F)(F)c1nc(Cl)sc1Cl` [compound 5667, 2-(2,5-dichloro-1,3-thiazol-4-yl)-2,2-difluoroacetic acid] here?
**A.** The value was “very strong”.

Tested on: Romaine lettuce (Lactuca sativa L.) plants
Assay: Comparison of NAA and DNAA: growth inhibition of potted Romaine lettuce plants
Format: in vivo
Conditions: foliar application, 0.05 mg/pot, two weeks after treatment
Description: The tests were performed on Romaine lettuce (Lactuca sativa L.) plants at the stage 2 to 3 leaves. The plants were grown in mini-pots packed with soil, dimensions 2×2×5 cm, one plant per mini-pot. Test compounds were dissolved in 0.1% aqueous solution water solution of Silwet adjuvant. The test material where applied in rate 0 (Control), 0.01, 0.05, and 0.5 mg/pot. The test compounds were applied on soil or foliar with airbrush (0.1 ml per pot). Each concentration was tested on 20 plants. Two weeks after the treatment the herbicidal effects of the respective test material were visually evaluated (aboveground part and roots. Then the aboveground part of the plants was neatly cut and weighed (wet weight) to assess the growth inhibition caused by the test compound. The growth inhibition (GI) was calculated as following: […]
Where Mt and Mc are median wet weight of treated and control plants, respectively.

**Q.** For “2-(6-bromopyridin-2-yl)-2,2-difluoroacetic acid [compound 6617]”, which “Herbicidal effect, growth application (%)” value (from here on “Herbicidal effect … (%)”) is on record?
**A.** The value was 88%.

**Q.** For `O=C(O)C(F)(F)c1nc(Cl)sc1Cl` [compound 5667, 2-(2,5-dichloro-1,3-thiazol-4-yl)-2,2-difluoroacetic acid], which “Herbicidal effect … (%)” value is on record?
**A.** Its value is 92%.

Same assay, conditions: foliar application, 0.50 mg/pot, two weeks after treatment

**Q.** For “2-(6-bromopyridin-2-yl)-2,2-difluoroacetic acid [compound 6617]”, which “Herbicidal effect … (%)” value is on record?
**A.** Its value is 100%.

**Q.** Which “Herbicidal effect … (%)” value does the source give for `O=C(O)C(F)(F)c1nc(Cl)sc1Cl` [compound 5667, 2-(2,5-dichloro-1,3-thiazol-4-yl)-2,2-difluoroacetic acid] here?
**A.** Its value is 100%.

Same assay, conditions: soil application, 0.01 mg/pot, two weeks after treatment

**Q.** With “2-(6-bromopyridin-2-yl)-2,2-difluoroacetic acid [compound 6617]” as the molecule, how does the “Herbicidal effect … (%)” value read?
**A.** The value was 52%.

**Q.** With `O=C(O)C(F)(F)c1nc(Cl)sc1Cl` [compound 5667, 2-(2,5-dichloro-1,3-thiazol-4-yl)-2,2-difluoroacetic acid] as the molecule, how does the “Herbicidal effect … (%)” value read?
**A.** Its value is 90%.

Same assay, conditions: soil application, 0.05 mg/pot, two weeks after treatment

**Q.** Which “Herbicidal effect … (%)” value does the source give for “2-(6-bromopyridin-2-yl)-2,2-difluoroacetic acid [compound 6617]” here?
**A.** The value was 92%.

**Q.** For `O=C(O)C(F)(F)c1nc(Cl)sc1Cl` [compound 5667, 2-(2,5-dichloro-1,3-thiazol-4-yl)-2,2-difluoroacetic acid], which “Herbicidal effect … (%)” value is on record?
**A.** Its value is 91%.

Same assay, conditions: soil application, 0.50 mg/pot, two weeks after treatment

**Q.** Which “Herbicidal effect … (%)” value does the source give for “2-(6-bromopyridin-2-yl)-2,2-difluoroacetic acid [compound 6617]” here?
**A.** Its value is 91%.

**Q.** For `O=C(O)C(F)(F)c1nc(Cl)sc1Cl` [compound 5667, 2-(2,5-dichloro-1,3-thiazol-4-yl)-2,2-difluoroacetic acid], which “Herbicidal effect … (%)” value is on record?
**A.** The value was 100%.

Tested on: Romaine lettuce (Lactuca sativa L.) plants
Assay: Post-emergence herbicidal activity on potted Romaine lettuce plants (soil or foliar application)
Format: in vivo
Conditions: foliar application, lettuce at 2 to 3 leaves, two weeks after treatment
Outline: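 Potted lettuce at the 2-3 leaf stage received compound in 0.1% aqueous Silwet, up to 0.0001%, applied to soil (1 ml/pot) or sprayed on foliage (0.1 ml/pot), 20 plants per concentration. Visual scoring and aboveground wet weight after two weeks; growth inhibition from median weights versus control.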

**Q.** For “2-(6-bromopyridin-2-yl)-2,2-difluoroacetic acid [compound 6617]”, which “Score (test material causing more than 85% of Growth Inhibition or irreversible plant damage)” value is on record?
**A.** Its value is “moderate (0.5)”.

**Q.** Which “Score (test material causing more than 85% of Growth Inhibition or irreversible plant damage)” value does the source give for `O=C(O)C(F)(F)c1nc(Cl)sc1Cl` [compound 5667, 2-(2,5-dichloro-1,3-thiazol-4-yl)-2,2-difluoroacetic acid] here?
**A.** Its value is “strong (0.01 to 0.05)”.

Same assay, conditions: soil application, lettuce at 2 to 3 leaves, two weeks after treatment

**Q.** For “2-(6-bromopyridin-2-yl)-2,2-difluoroacetic acid [compound 6617]”, which “Score (test material causing more than 85% of Growth Inhibition or irreversible plant damage)” value is on record?
**A.** Its value is “strong (0.01 to 0.05)”.

**Q.** With `O=C(O)C(F)(F)c1nc(Cl)sc1Cl` [compound 5667, 2-(2,5-dichloro-1,3-thiazol-4-yl)-2,2-difluoroacetic acid] as the molecule, how does the “Score (test material causing more than 85% of Growth Inhibition or irreversible plant damage)” value read?
**A.** The value was “strong (0.01 to 0.05)”.
